Experimental findings from patent US8148320B2, “Peptide inhibitors of ABL kinases” (New York Blood Center, Inc., priority 2005, dated 2012) are described below.

The subject of assay [1] is c-AbI kinase. Briefly: c-AbI kinase assay with biotinylated model substrate peptide and 32P-γ-ATP. The format is biochemical. As to conditions: for Fold Change (PEP): Vmax relative to PEP. The protocol: (§1) AbI kinase. His-tagged, uncapped active c-AbI, E46 through C-terminus (isoform 1b) (kind gift of Tony Koleske, Yale University, New Haven, Conn.), was produced and purified from baculovirus as described (Tanis et al., 2003) following treatment of insect cells with 30 μM STI-571 (Novartis Pharma AG, Basel, Switzerland) for 48 hrs prior to cell lysis. The expressed protein was affinity purified on nickel-nitriloacetic acid agarose, washed to remove the inhibitor, and subsequently purified by ion-exchange chromatography using a Mono S column (Amersham Biosciences, Piscataway, N.J.). GST fusions of c-AbI SH2 domain wild type and SH2 domain containing the R171K mutation, and mammalian expression plasmid containing c-AbI-GST (isoform 1b, with the GST at the C-terminus) were obtained from Bruce Mayer (University of Connecticut Health Center, Farmington, Conn.).
Kinase assay. Measurement of kinase activity was essentially as described in (Tanis et al., 2003), using biotinylated model substrate peptide GGEAIYAAPFKK (SEQ ID NO: 16), (Brasher and Van Etten, 2000; Songyang et al., 1995) and ^32P-γ-ATP. SAM2 streptavidin-coated membrane (Promega Corφoration, Madison Wis.) was used to capture the substrate. Kinase assay mixtures contained 50 mM Tris-HCI pH 7.5, 10 mM MgCl2, 1 mM EGTA, 2 mM dithiothreitol, 0.01% Brij 35, and 100 μM ATP, 2 nM AbI kinase, substrate peptides, and Abil ligand peptides as indicated. Reactions were carried out for 5 min. at 30° C. To evaluate c-AbI kinase activity in LnCAP cell lines, cells were treated with pervanadate for 10 min. prior to cell lysis, and immunoprecipitates from lysed cells were tested using GST-Crk as substrate.

Assay [2] concerns the target T1, AbI SH2 domain (Homo sapiens, UniProt P00519).
T1 construct: GST-tagged AbI SH2 domain; gift of Bruce Mayer (University of Connecticut Health Center)
T1 sequence (P00519 127-217 limits assumed): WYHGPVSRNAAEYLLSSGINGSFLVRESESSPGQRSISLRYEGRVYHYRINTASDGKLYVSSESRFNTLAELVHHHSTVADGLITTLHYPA
Briefly: Surface plasmon resonance (Biacore) binding of biotinylated Abi1 peptides to GST-tagged AbI SH2 domain. The method, then:
as §1
Surface Plasmon Resonance Assay. Surface plasmon resonance assay was performed using a Biacore 3000 instrument (BlAcore Inc., Piscataway, N.J.). Biotinylated 14-residue peptides, pY213 or Y213, were coupled to surface of streptavidin-coated (SA) biosensor chip (BIAcore Inc., Piscataway, N.J.). […] Sensograms (plots of changes in response unit on the surface as a function of time) derived were analyzed using the software BIAeval 3.0. […]
(In general: Surface plasmon resonance follows binding to a sensor surface in real time, without labels.)

[3] abbreviates: concentrations lower than 2 mM, 100 μM substrate peptide.
Setting [4] is: peptide concentration 2 mM, 100 μM substrate peptide.
Setting [5] is: increasing peptide concentrations, 100 μM substrate peptide.

Entries after “also recorded” stand apart in the source; their conditions may differ. Where two headings read alike, the source gives them in different places. Where no end group is shown, it is not given here.

As usually defined, the Km is the substrate concentration at which the rate is half of its maximum. The term Kd denotes the free concentration of one partner at which half of the binding sites on the other are occupied at equilibrium, for simple one-to-one binding.

For “GGEAIYAAPFKK (also: biotinylated, site not given here) [PEP, reference compound]”, the Km in assay [1] (Km of substrate peptide PEP alone) was 21.2 ± 3.37 µM. Further, the “Fold Change (PEP)” value in assay [1] (PEP alone) worked out at 1.00. Also, in assay [1] (substrate peptide PEP alone, no Abi1 peptide, mean ± s.d., n=3), the Vmax is 157.79 ± 9.29 pmol/min-μg.

Consider “GTLSRTNPLTQKPPSPPMSGRGTLGRNTPYKTLEPVKPPTVPNDpYMTSP [Pro-pY213]”, for which the “Kd (in words)” value in assay [2] (GST-SH2, Biacore, data not shown) is on record as “low millimolar range”. Further, the “effect on c-AbI kinase activity (in words)” value (from here on “effect”) in assay [1] is recorded as “showed inhibition”; in assay [1] (setting [3]), “no inhibition was observed”; in assay [1] (peptide 1.5 mM) it was “decrease of activity”; in assay [1] (peptide 0.75 to 1.25 mM), “increased the kinase activity”; in assay [1] (peptide 1.75 and 2 mM), “inhibition”; in assay [1] (setting [4]), “enhanced the inhibitory effect”.

Turning to “Pro-F198: Abi1 peptide spanning residues 169-203 with Y198 to F198 replacement (GTLSRTNPPTQKPPSPPMSGRGTLGRNTPFKTLEP; UniProt Q8IZP0 169-203, looked up, variant Y198F)”, the “effect” value in assay [1] (setting [5]) is “effect was lost”.

As for “Pro-Y198: Abi1 peptide spanning residues 169-203, with PXXP motif PPSPP and Y198, excludes pY213 sequence”, the “effect” value in assay [1] (setting [5]) is on record as “increased inhibition”.

In the case of “Y213: 14-residue Abi1 peptide containing nonphosphorylated tyrosine 213 (VKPPTVPNDYMTSP; not fully specified) [Peptide Y213]”, the figures for the “effect” value in assay [1], in assay [1] (setting [3]) and in assay [1] (setting [4]) were “showed inhibition; also recorded: most potent inhibition”, “significant kinase inhibition at lower concentrations than the pY213 peptide” and “more significant reduction of the kinase activity than pY213”, respectively. For the same substance, the Vmax was found to be 2.90 ± 1.16 pmol/min-μg in assay [1] (Abi1 peptide at 2 mM, 5-min assay, increasing substrate peptide, mean ± s.d., n=3); 112.11 ± 7.80 pmol/min-μg in assay [1] (Y213 peptide at 0.1 (mM)); 86.68 ± 19.71 pmol/min-μg in assay [1] (Y213 peptide at 0.25). The Km in assay [1] (Km of substrate peptide, Abi1 peptide at 2 mM) amounted to 16.3 ± 0.6 µM; in assay [1] (Km of substrate peptide, Y213 at 0.1), 14.9 ± 2.74 µM; in assay [1] (Km of substrate peptide, Y213 at 0.25), 16.5 ± 7.29 µM. Also, the “Fold Change (PEP)” value is listed as 0.018 in assay [1] (Abi1 peptide at 2 mM), 0.71 in assay [1] (Y213 at 0.1) and 0.55 in assay [1] (Y213 at 0.25).

Regarding “pY213: 14-residue Abi1 peptide containing phosphorylated tyrosine 213; Abi1 14-mer sequence vkpptvpndymtsp (SEQ ID NO:5) (VKPPTVPNDYMTSP)”, in assay [2] (peptide on SA chip, varying AbI SH2 concentration, 1:1 binding model, read-out: dissociation constant, KD), the Kd was 33.2 nM.
